Experimental data as given in US8192962B2, “Processes for detecting toxic substances” (Daikin Industries, Ltd., priority 2001, dated 2012).

System: Unknown protein yeast genes
Assay: DNA chip mRNA expression in yeast, unknown protein yeast genes (Table 1)
Format: cell-based, Saccharomyces cerevisiae S288C
Method: Yeast (Saccharomyces cerevisiae S288C (α SUC2mal mel gap2 CUP1)) were incubated at 25° C. on YPD medium (yeast extract 1%, polypepton 2%, glucose 2%). One of toxic chemical substances was added to the cells at logarithmic growth phase, and the cells were further incubated for two hours. Cells were cultured without any chemical substance in the same condition, and were used as control. Concentrations of the chemical substances were defined to inhibit the growth of the yeast but not lead to death.
After completion of the incubation, the culture was centrifuged to collect the cells. To the cells, sodium acetate buffer (50 mM sodium acetate, 10 mM EDTA, 1% SDS) was added, and the mixture was shaken at 65° C. for five minutes, followed by returning to room temperature, and obtaining the supernatant, of which the procedures were repeated two times. To the supernatant, ½ amount of a solution of phenol/chloroform was added, and the mixture was centrifuged to give a supernatant, which was added with an equal amount of chloroform, and the mixture was centrifuged to give a supernatant. To the supernatant, an equal amount of isopropanol containing 0.3 M sodium acetate was added, and the mixture was allowed to stand at room temperature for 30 minutes, after which the mixture was centrifuged to give a sediment of the whole RNAs. Seventy % ethanol was added to the sediment, and the mixture was again centrifuged to give a sediment, which was then dried and dissolved in water. mRNA was isolated from the whole RNAs as followings. In view of the fact that a poly A chain is attached to the 3′ terminus of mRNA, a polynucleotide having a poly T structure which was immobilized on the surface of latex beads was used to trap the mRNA, and then the mRNA was washed and eluted with spine column (Oligotex-dT30<Super>mRNA Purification Kit, Takara). Reverse transcription of the mRNA was conducted with a reverse transcriptase (Super Script II Reverse Transcriptase; catalogue No. 18064-014, GibcoBRL) using fluorescence-labeled nucleotides to give cDNAs that were introduced with Cy3-dUTP or Cy5-dUTP during the reverse transcription.
The labeled cDNAs were dissolved in TE buffer (10mM Tris-HCl/1 mM EDTA, pH8.0), and the solution was dropped on the DNA chip containing the whole genes of yeast (DNA Chip Research Inc. Japan) so that the cDNAs were hybridized on the DNA chip at 65° C. for over 12 hours. The fluoresces intensity of the DNA chip was read with a scanner, and the ratio relative to the fluorescence intensity resulting from the absence of chemical substance was estimated as the following, which is shown in Tables 1 to 9: […]

Measured: The level of expressed mRNA in the presence of chemical substance/The level of expressed mRNA in the absence of chemical substance

C[S+](C)[O-] [(15), dimethylsulfoxide]
7.1: yeast gene YDL222C, incubated two hours with chemical substance
0.8: yeast gene YER037W | yeast gene YHR054C | yeast gene YHR095W | yeast gene YJR030C | yeast gene YLR427W | yeast gene YML029W | yeast gene YNL026W | yeast gene YNL176C | yeast gene YNL200C | yeast gene YNL211C | yeast gene YOR022C | yeast gene YOR087W | yeast gene YPL168W | yeast gene YPL188W
0.7: yeast gene YBR062C | yeast gene YDR250C | yeast gene YDR278C | yeast gene YLR008C | yeast gene YLR297W | yeast gene YLR460C | yeast gene YNL063W | yeast gene YPL180W
0.6: yeast gene YDR435C | yeast gene YOL101C
8.8: yeast gene YOR248W, incubated two hours with chemical substance
1.2: yeast gene YGR110W | yeast gene YNR051C | yeast gene YPL005W
3.9: yeast gene YGR284C
2.9: yeast gene YPR077C, cells incubated two hours with the chemical substance
1.7: yeast gene YKL071W | yeast gene YKL107W | yeast gene YPR148C
0.9: yeast gene YAR031W | yeast gene YFL024C | yeast gene YOL026C
4.4: yeast gene YOL031C
7.5: yeast gene YIL117C, incubated two hours with chemical substance
1.0: yeast gene YDR210W | yeast gene YHR029C | yeast gene YLR346C | yeast gene YLR415C | yeast gene YML041C | yeast gene YOR138C | yeast gene YPL221W
4.1: yeast gene YBL048W
1.9: yeast gene YAR064W | yeast gene YMR090W
6.9: yeast gene YAL018C
1.6: yeast gene YCR013C | yeast gene YGL121C | yeast gene YJL037W
2.2: yeast gene YDL169C | yeast gene YDR476C | yeast gene YML013W | yeast gene YMR068W | yeast gene YNL058C
1.1: yeast gene YBR012C | yeast gene YDR214W | yeast gene YKR040C | yeast gene YOR253W | yeast gene YPL150W
0.4: yeast gene YKR075C
6.8: yeast gene YER106W, incubated two hours with chemical substance
5.0: yeast gene YHR209W
2.5: yeast gene YMR315W
4.3: yeast gene YPL280W
2.3: yeast gene YGR139W | yeast gene YPL152W
2.1: yeast gene YDR070C
1.3: yeast gene YBR287W | yeast gene YDL110C | yeast gene YLR226W | yeast gene YOR049C | yeast gene YOR267C
0.5: yeast gene YBR101C, incubated two hours with substance | yeast gene YDR078C, incubated two hours with substance | yeast gene YDR202C, incubated two hours with substance | yeast gene YER124C, incubated two hours with substance | yeast gene YER182W, incubated two hours with substance | yeast gene YGR211W, incubated two hours with substance | yeast gene YJR085C, incubated two hours with substance | yeast gene YLR311C, incubated two hours with substance | yeast gene YLR392C | yeast gene YMR041C, incubated two hours with substance | yeast gene YNL194C | yeast gene YNL253W
9.0: yeast gene YJL149W, incubated two hours with chemical substance
1.4: yeast gene YAL034C | yeast gene YBL107C | yeast gene YDL027C | yeast gene YDR128W
0.3: yeast gene YGR035C | yeast gene YML079W
1.5: yeast gene YLL056C | yeast gene YMR160W | yeast gene YPR049C | yeast gene YPR172W
1.8: yeast gene YOL150C | yeast gene YOR338W
